Tested on: patients of the REDUCE-IT and earlier EPA placebo-controlled trials
Format: in vivo, human
Conditions: R-I

CC/C=C\C/C=C\C/C=C\C/C=C\C/C=C\CCCC(=O)OCC [icosapent ethyl, eicosapentaenoic acid ethyl ester]
AR: ALP high (Day 120): 3.2% | AR: ALP high (Day 360): 3.4% | AR: ALP high (Day 720): 4.4% | AR: ALP high (Day 1080): 4.4% | AR: ALP high (Day 1440): 4.2% | AR: ALP high (Day 1800): 4.3% | AR: ALP shift: normal to high (Day 120): 1.5% | AR: ALP shift: normal to high (Day 360): 1.8% | AR: ALP shift: normal to high (Day 720): 3.0% | AR: ALP shift: normal to high (Day 1080): 3.3% | AR: ALP shift: normal to high (Day 1440): 3.2% | AR: ALP shift: normal to high (Day 1800): 3.3% | AR: ALP shift: normal to low (Day 120): 0.3% | AR: ALP shift: normal to low (Day 360): 0.3% | AR: ALP shift: normal to low (Day 720): 0.4% | AR: ALP shift: normal to low (Day 1080): 0.4% | AR: ALP shift: normal to low (Day 1440): 0.6% | AR: Albumin high (Day 120): 1.0% | AR: Albumin high (Day 360): 1.2% | AR: Albumin high (Day 720): 2.1% | AR: Albumin high (Day 1080): 1.9% | AR: Albumin high (Day 1440): 1.8% | AR: Albumin shift: normal to high (Day 120): 0.8% | AR: Albumin shift: normal to high (Day 360): 0.9% | AR: Albumin shift: normal to high (Day 720): 1.9% | AR: Albumin shift: normal to high (Day 1080): 1.8% | AR: Albumin shift: normal to high (Day 1440): 1.6% | AR: Bilirubin >1x ULN to 2x ULN: 3.3% | AR: Bilirubin >2x ULN to 3x ULN: 0.2% | AR: Bilirubin high (Day 120): 1.9% | AR: Bilirubin high (Day 360): 1.9% | AR: Bilirubin high (Day 720): 2.0% | AR: Bilirubin high (Day 1080): 2.4% | AR: Bilirubin high (Day 1440): 2.3% | AR: Bilirubin high (Day 1800): 2.6% | AR: Bilirubin shift: normal to high (Day 120): 1.0% | AR: Bilirubin shift: normal to high (Day 360): 0.9% | AR: Bilirubin shift: normal to high (Day 720): 1.0% | AR: Bilirubin shift: normal to high (Day 1080): 1.4% | AR: Bilirubin shift: normal to high (Day 1440): 1.3% | AR: Bilirubin shift: normal to high (Day 1800): 1.4% | AR: Calcium high (Day 120): 1.0% | AR: Calcium high (Day 360): 1.1% | AR: Calcium high (Day 720): 1.2% | AR: Calcium low (Day 120): 0.2% | AR: Calcium low (Day 360): 0.2% | AR: Calcium low (Day 720): 0.2% | AR: DBP High (≥100 mmHg): 5.3% | AR: DBP High and Rose ≥10 mmHg: 4.3% | AR: DBP Low (≤50 mmHG): 1.0% | AR: DBP Low and dropped ≥10 mmHg: 0.9% | AR: DBP dropped ≥10 mmHG: 37.8% | AR: DBP rose ≥10 mmHg: 36.5% | AR: High platelets (Day 720): 1.5% | AR: Low platelets (Day 360): 2.0% | AR: Low platelets (Day 720): 3.1% | AR: Low platelets (Day 1080): 3.2% | AR: Platelet count: PCS Low <100 × 10^3/uL: 0.8% | AR: SBP High (≥160 mmHg): 18.8% | AR: SBP High and rose ≥20 mmHg: 11.9% | AR: SBP Low (≤90 mmHg): 0.8% | AR: SBP dropped ≥20 mmHg: 24.0% | AR: SBP low and dropped ≥20 mmHg: 0.6% | AR: SBP rose ≥20 mmHg: 29.6% | AR: Urate high (Day 120): 13.4% | AR: Urate high (Day 360): 13.0% | AR: Urate high (Day 720): 12.4% | AR: Urate high (Day 1080): 12.7% | AR: Urate high (Day 1440): 12.7% | AR: Urate high (Day 1800): 12.1% | AR: Urate shift: normal to high (Day 120): 5.5% | AR: Urate shift: normal to high (Day 360): 6.0% | AR: Urate shift: normal to high (Day 720): 6.2% | AR: Urate shift: normal to high (Day 1080): 7.1% | AR: Urate shift: normal to high (Day 1440): 8.2% | AR: Urate shift: normal to high (Day 1800): 8.2% | AR: Urate shift: normal to low (Day 120): 0.1% | AR: Urate shift: normal to low (Day 360): 0.2% | AR: Urate shift: normal to low (Day 720): 0.2% | AR: Urate shift: normal to low (Day 1080): 0.2% | AR: Urate shift: normal to low (Day 1440): 0.3% | AR: Uric acid PCS High >7.5 mg/dL (Women): 5.0% | AR: Uric acid PCS High >8.0 mg/dL (Men): 15.3% | AR: Uric acid PCS Low <1.9 mg/dL (Women): 0.0% | AR: Uric acid PCS Low <2.5 mg/dL (Men): 0.4% | ARR: ALP high (Day 120): −1.5% | ARR: ALP high (Day 360): −2.0% | ARR: ALP high (Day 720): −2.4% | ARR: ALP high (Day 1080): −3.0% | ARR: ALP high (Day 1440): −2.9% | ARR: ALP high (Day 1800): −2.7% | ARR: ALP shift: normal to high (Day 120): −1.3% | ARR: ALP shift: normal to high (Day 360): −1.8% | ARR: ALP shift: normal to high (Day 720): −2.6% | ARR: ALP shift: normal to high (Day 1080): −3.0% | ARR: ALP shift: normal to high (Day 1440): −2.7% | ARR: ALP shift: normal to high (Day 1800): −2.6% | ARR: ALP shift: normal to low (Day 120): 0.4% | ARR: ALP shift: normal to low (Day 360): 0.3% | ARR: ALP shift: normal to low (Day 720): 0.4% | ARR: ALP shift: normal to low (Day 1080): 0.3% | ARR: ALP shift: normal to low (Day 1440): 0.1% | ARR: Albumin high (Day 120): 0.8% | ARR: Albumin high (Day 360): 0.7% | ARR: Albumin high (Day 720): 0.6% | ARR: Albumin high (Day 1080): 0.7% | ARR: Albumin high (Day 1440): 0.8% | ARR: Albumin shift: normal to high (Day 120): 0.8% | ARR: Albumin shift: normal to high (Day 720): 0.7% | ARR: Albumin shift: normal to high (Day 1080): 0.4% | ARR: Albumin shift: normal to high (Day 1440): 0.7% | ARR: Bilirubin >1x ULN to 2x ULN: 3.5% | ARR: Bilirubin >2x ULN to 3x ULN: 0.2% | ARR: Bilirubin high (Day 120): 2.4% | ARR: Bilirubin high (Day 360): 2.0% | ARR: Bilirubin high (Day 720): 2.6% | ARR: Bilirubin high (Day 1080): 2.0% | ARR: Bilirubin high (Day 1440): 2.5% | ARR: Bilirubin high (Day 1800): 2.3% | ARR: Bilirubin shift: normal to high (Day 120): 1.3% | ARR: Bilirubin shift: normal to high (Day 360): 1.3% | ARR: Bilirubin shift: normal to high (Day 720): 1.3% | ARR: Bilirubin shift: normal to high (Day 1080): 1.0% | ARR: Bilirubin shift: normal to high (Day 1440): 1.8% | ARR: Bilirubin shift: normal to high (Day 1800): 1.2% | ARR: Calcium high (Day 120): −0.2% | ARR: Calcium high (Day 360): −0.1% | ARR: Calcium high (Day 720): −0.3% | ARR: Calcium low (Day 120): 0.1% | ARR: Calcium low (Day 360): 0.2% | ARR: Calcium low (Day 720): 0.2% | ARR: DBP High (≥100 mmHg): 0.6% | ARR: DBP High and Rose ≥10 mmHg: 0.4% | ARR: DBP Low (≤50 mmHG): 0.1% | ARR: DBP Low and dropped ≥10 mmHg: 0.0% | ARR: DBP dropped ≥10 mmHG: 3.2% | ARR: DBP rose ≥10 mmHg: −0.6% | ARR: High platelets (Day 720): 0.6% | ARR: Low platelets (Day 360): −1.8% | ARR: Low platelets (Day 720): −0.7% | ARR: Low platelets (Day 1080): −1.2%
